Laboratory results reported in US11180474B2 (BRISTOL-MYERS SQUIBB COMPANY, priority 2016, dated 2021).
pIC50: −log10 of the molar value.

How the values were obtained:
human TLR9 = biological target: T1, human TLR9 (Homo sapiens, UniProt Q9NR96); assay: TLR9 inhibition reporter assay (HEK-Blue cells, SEAP reporter, ODN2006 stimulation); type: cell-based; settings: HEK-Blue cells overexpressing human TLR9, ODN2006 5 nM
T1 construct: host or cells: HEK-Blue cells
T1 sequence (Q9NR96 26-1032): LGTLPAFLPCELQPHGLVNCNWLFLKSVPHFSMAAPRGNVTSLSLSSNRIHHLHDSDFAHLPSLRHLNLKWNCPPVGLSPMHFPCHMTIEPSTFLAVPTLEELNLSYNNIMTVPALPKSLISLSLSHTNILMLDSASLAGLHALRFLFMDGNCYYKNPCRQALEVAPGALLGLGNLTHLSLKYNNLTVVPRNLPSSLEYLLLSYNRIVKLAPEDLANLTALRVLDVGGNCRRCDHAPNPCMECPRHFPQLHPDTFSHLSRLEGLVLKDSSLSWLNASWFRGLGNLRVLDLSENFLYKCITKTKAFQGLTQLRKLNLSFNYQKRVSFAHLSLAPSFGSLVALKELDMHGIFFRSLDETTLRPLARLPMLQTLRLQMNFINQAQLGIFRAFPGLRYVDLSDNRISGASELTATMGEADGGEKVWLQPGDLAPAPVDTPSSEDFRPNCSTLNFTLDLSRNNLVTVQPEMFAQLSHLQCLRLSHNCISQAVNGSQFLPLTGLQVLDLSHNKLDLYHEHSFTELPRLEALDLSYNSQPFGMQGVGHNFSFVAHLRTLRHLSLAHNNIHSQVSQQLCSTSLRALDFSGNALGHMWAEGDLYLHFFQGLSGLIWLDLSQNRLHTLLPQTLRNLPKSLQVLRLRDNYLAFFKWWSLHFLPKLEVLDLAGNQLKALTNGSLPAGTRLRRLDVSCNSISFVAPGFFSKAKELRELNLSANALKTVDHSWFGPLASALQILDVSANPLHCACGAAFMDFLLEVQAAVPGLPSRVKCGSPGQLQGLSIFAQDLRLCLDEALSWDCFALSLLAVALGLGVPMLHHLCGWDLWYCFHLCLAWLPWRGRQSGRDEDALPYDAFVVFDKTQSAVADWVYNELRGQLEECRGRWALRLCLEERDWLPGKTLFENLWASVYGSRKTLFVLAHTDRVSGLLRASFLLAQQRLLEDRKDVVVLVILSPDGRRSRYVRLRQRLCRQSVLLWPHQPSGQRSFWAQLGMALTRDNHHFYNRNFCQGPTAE
Procedure, shortened: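 HEK-Blue cells overexpressing human TLR7, TLR8 or TLR9 carry a SEAP reporter driven by NF-κB/AP-1 sites. Compounds (0.05 nM–50 μM) were preincubated 30 min at room temperature, then cells were stimulated with gardiquimod 7.5 μM (TLR7), R848 15.9 μM (TLR8) or ODN2006 5 nM (TLR9) for 22 h at 37 °C.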

human TLR7 = biological target: T2, human TLR7 (Homo sapiens, UniProt Q9NYK1); assay: TLR7 inhibition reporter assay (HEK-Blue cells, SEAP reporter, gardiquimod stimulation); type: cell-based; settings: HEK-Blue cells overexpressing human TLR7, gardiquimod 7.5 μM
T2 construct: host or cells: HEK-Blue cells
T2 sequence (Q9NYK1 27-1049): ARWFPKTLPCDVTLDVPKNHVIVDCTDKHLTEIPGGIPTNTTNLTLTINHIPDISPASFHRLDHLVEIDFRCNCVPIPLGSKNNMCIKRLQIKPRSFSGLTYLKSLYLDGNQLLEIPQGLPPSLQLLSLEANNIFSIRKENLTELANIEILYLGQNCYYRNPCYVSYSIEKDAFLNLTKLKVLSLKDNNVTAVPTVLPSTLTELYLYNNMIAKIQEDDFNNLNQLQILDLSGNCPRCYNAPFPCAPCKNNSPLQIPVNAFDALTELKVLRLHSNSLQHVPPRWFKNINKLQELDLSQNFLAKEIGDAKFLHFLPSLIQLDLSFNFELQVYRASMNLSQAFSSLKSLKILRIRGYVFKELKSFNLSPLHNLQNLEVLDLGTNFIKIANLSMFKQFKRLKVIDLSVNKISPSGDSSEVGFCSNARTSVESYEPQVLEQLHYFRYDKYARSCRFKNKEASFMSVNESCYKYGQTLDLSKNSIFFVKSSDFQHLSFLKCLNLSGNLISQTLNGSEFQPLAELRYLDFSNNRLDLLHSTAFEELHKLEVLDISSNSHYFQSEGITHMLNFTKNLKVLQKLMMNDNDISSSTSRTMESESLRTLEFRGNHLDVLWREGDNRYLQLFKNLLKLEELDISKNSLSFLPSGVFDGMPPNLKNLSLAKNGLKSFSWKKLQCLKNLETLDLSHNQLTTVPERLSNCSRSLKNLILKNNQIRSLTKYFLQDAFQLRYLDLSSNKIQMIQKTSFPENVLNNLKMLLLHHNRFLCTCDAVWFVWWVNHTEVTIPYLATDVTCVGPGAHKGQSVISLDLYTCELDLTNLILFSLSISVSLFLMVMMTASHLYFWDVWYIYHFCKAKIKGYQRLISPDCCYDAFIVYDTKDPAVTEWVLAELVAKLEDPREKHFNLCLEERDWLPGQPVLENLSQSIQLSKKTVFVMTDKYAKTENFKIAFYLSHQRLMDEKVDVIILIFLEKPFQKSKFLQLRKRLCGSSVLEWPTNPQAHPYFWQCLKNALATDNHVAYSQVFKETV
Procedure, shortened: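 SEAP readout via HEK-Blue Detection medium after 22 h at 37 °C, 5% CO2 defines inhibition, normalized between agonist-plus-DMSO wells and a reference inhibitor. Compound dose range 0.05 nM–50 μM; TLR7 cells at 15,000/well (gardiquimod), TLR8 at 20,000/well (R848).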

| pIC50 (human TLR9) | pIC50 (human TLR7) | SMILES |
| --- | --- | --- |
| 5.62 | 7.00 | COc1ccc(-c2[nH]c3ccc(C4CCN(CC(=O)N5CCN(C(C)=O)CC5)CC4)cc3c2CC(F)(F)F)cc1OC [Example 361, 1-(4-acetylpiperazin-1-yl)-2-(4-(2-(3,4-dimethoxyphenyl)-3-(2,2,2-trifluoroethyl)-1H-indol-5-yl)piperidin-1-yl)ethan-1-one] |
| 6.85 | 8.40 | COc1ccc(-c2[nH]c3ccc(C4CCN(CC(=O)N5CCN(c6ccncc6)CC5)CC4)cc3c2CC(F)(F)F)cc1OC [Example 366, 2-(4-(2-(3,4-dimethoxyphenyl)-3-(2,2,2-trifluoroethyl)-1H-indol-5-yl)piperidin-1-yl)-1-(4-(pyridin-4-yl)piperazin-1-yl) ethan-1-one] |
| 5.64 | 6.82 | COc1ccc(-c2[nH]c3ccc(C4CCN(CC(=O)NCCc5ccc(S(N)(=O)=O)cc5)CC4)cc3c2CC(F)(F)F)cc1OC [Example 384, 2-(4-(2-(3,4-dimethoxyphenyl)-3-(2,2,2-trifluoroethyl)-1H-indol-5-yl)piperidin-1-yl)-N-(4-sulfamoylphenethyl)acetamide] |
| 5.28 | 7.48 | COc1ccc(-c2[nH]c3ccc(C4CCN(C(=O)CCCn5ccnc5)CC4)cc3c2CC(F)(F)F)cc1OC [Example 331, 1-(4-(2-(3,4-dimethoxyphenyl)-3-(2,2,2-trifluoroethyl)-1H-indol-5-yl)piperidin-1-yl)-4-(1H-imidazol-1-yl)butan-1-one] |
| ≤ 4.30 | 5.30 | COc1ccc(-c2[nH]c3ccc(C4CCN(C(=O)Cc5nnn[nH]5)CC4)cc3c2CC(F)(F)F)cc1OC [Example 341, 1-(4-(2-(3,4-dimethoxyphenyl)-3-(2,2,2-trifluoroethyl)-1H-indol-5-yl)piperidin-1-yl)-2-(1H-tetrazol-5-yl)ethan-1-one] |
| 6.47 | 7.89 | CCN(CCN(C)C)C(=O)CN1CCC(c2ccc3[nH]c(-c4ccc(OC)c(OC)c4)c(CC(F)(F)F)c3c2)CC1 [Example 372, 2-(4-(2-(3,4-dimethoxyphenyl)-3-(2,2,2-trifluoroethyl)-1H-indol-5-yl)piperidin-1-yl)-N-(2-(dimethylamino)ethyl)-N-ethylacetamide] |
| 4.40 | 6.64 | COc1ccc(-c2[nH]c3ccc(C4CCN(C(=O)C[C@@H](C)O)CC4)cc3c2CC(F)(F)F)cc1OC [Example 353, (R)-1-(4-(2-(3,4-dimethoxyphenyl)-3-(2,2,2-trifluoroethyl)-1H-indol-5-yl)piperidin-1-yl)-3-hydroxybutan-1-one] |
| 5.06 | 5.50 | CCN(CC)C(=O)C1CCCN(CC(=O)N2CCC(c3ccc4[nH]c(-c5ccc(OC)c(OC)c5)c(C)c4c3)CC2)C1 (stereo not drawn) [Example 404, 1-(2-(4-(2-(3,4-dimethoxyphenyl)-3-methyl-1H-indol-5-yl)piperidin-1-yl)-2-oxoethyl)-N,N-diethylpiperidine-3-carboxamide] |
| 5.79 | 7.24 | COc1ccc(-c2[nH]c3ccc(C4CCN(C(=O)CCN5CCCCC5)CC4)cc3c2CC(F)(F)F)cc1OC [Example 330, 1-(4-(2-(3,4-dimethoxyphenyl)-3-(2,2,2-trifluoroethyl)-1H-indol-5-yl)piperidin-1-yl)-3-(piperidin-1-yl)propan-1-one] |
| 5.67 | 7.66 | COc1ccc(-c2[nH]c3ccc(C4CCN(C(=O)CN(C)C)CC4)cc3c2CC(F)(F)F)cc1OC [Example 354, 1-(4-(2-(3,4-dimethoxyphenyl)-3-(2,2,2-trifluoroethyl)-1H-indol-5-yl)piperidin-1-yl)-2-(dimethylamino)ethan-1-one] |
| 5.55 | 7.68 | COc1ccc(-c2[nH]c3ccc(C4CCNCC4F)cc3c2C(C)C)cc1OC (single isomer, unassigned) [Example 322, 2-(3,4-dimethoxyphenyl)-5-(3-fluoropiperidin-4-yl)-3-isopropyl-1H-indole] |
| 5.94 | 7.82 | COc1ccc(-c2[nH]c3ccc(C4CCNCC4)cc3c2CC(F)(F)F)cc1OC [Example 329, 2-(3,4-dimethoxyphenyl)-5-(piperidin-4-yl)-3-(2,2,2-trifluoroethyl)-1H-indole] |
| 6.18 | 7.89 | COc1ccc(-c2[nH]c3ccc(C4CCN(CC(=O)NCCCn5ccnc5)CC4)cc3c2CC(F)(F)F)cc1OC [Example 383, N-(3-(1H-imidazol-1-yl)propyl)-2-(4-(2-(3,4-dimethoxyphenyl)-3-(2,2,2-trifluoroethyl)-1H-indol-5-yl)piperidin-1-yl)acetamide] |
| 6.40 | 7.57 | COc1ccc(-c2[nH]c3ccc(C4CCN(CC(=O)N(C)C5CCN(C)C5)CC4)cc3c2CC(F)(F)F)cc1OC (stereo not drawn) [Example 370, 2-(4-(2-(3,4-dimethoxyphenyl)-3-(2,2,2-trifluoroethyl)-1H-indol-5-yl)piperidin-1-yl)-N-methyl-N-(1-methylpyrrolidin-3-yl)acetamide] |
| 5.30 | 7.15 | COc1ccc(-c2[nH]c3ccc(C4CCNCC4F)cc3c2C(C)C)cc1OC (racemic) [Example 320, 2-(3,4-dimethoxyphenyl)-5-(3-fluoropiperidin-4-yl)-3-isopropyl-1H-indole] |
| 5.75 | 6.17 | CCN(CC)C(=O)C1CCCN(CC(=O)N2CCC(c3ccc4[nH]c(-c5ccc(OC)c(OC)c5)c(C5CCOCC5)c4c3)CC2)C1 (stereo not drawn) [Example 392, 1-(2-(4-(2-(3,4-dimethoxyphenyl)-3-(tetrahydro-2H-pyran-4-yl)-1H-indol-5-yl)piperidin-1-yl)-2-oxoethyl)-N,N-diethylpiperidine-3-carboxamide] |
| 5.37 | 7.21 | COc1ccc(-c2[nH]c3ccc(C4CCN(CC(=O)NCC(N)=O)CC4)cc3c2CC(F)(F)F)cc1OC [Example 385, N-(2-amino-2-oxoethyl)-2-(4-(2-(3,4-dimethoxyphenyl)-3-(2,2,2-trifluoroethyl)-1H-indol-5-yl)piperidin-1-yl)acetamide] |
| 5.54 | 6.75 | COc1ccc(-c2[nH]c3ccc(C4CCN(CC(=O)NCCCN5CCCC5=O)CC4)cc3c2CC(F)(F)F)cc1OC [Example 376, 2-(4-(2-(3,4-dimethoxyphenyl)-3-(2,2,2-trifluoroethyl)-1H-indol-5-yl)piperidin-1-yl)-N-(3-(2-oxopyrrolidin-1-yl)propyl)acetamide] |
